Data: patent publication US20220395553A1, “CXCR4 ANTAGONIST PEPTIDES” (COHBAR, INC., priority 2019, published 2022)
Square brackets hold non-standard residues; d marks the D form. Peptide text beside a SMILES is read from it.

Key:
human CXCR4 [1] = molecular target: T1, human CXCR4 (Homo sapiens, UniProt P61073); assay: CXCR4/CXCL12 binding, HTRF format, single concentration (Example 23); parameters: host or cells: HEK293 (Tag-lite CXCR4 cells, frozen aliquots, transient expression); details: 15 nM CXCR4R fluorescent probe, 3 hours, HEK293 Tag-lite CXCR4 cells
T1 sequence (P61073 whole entry): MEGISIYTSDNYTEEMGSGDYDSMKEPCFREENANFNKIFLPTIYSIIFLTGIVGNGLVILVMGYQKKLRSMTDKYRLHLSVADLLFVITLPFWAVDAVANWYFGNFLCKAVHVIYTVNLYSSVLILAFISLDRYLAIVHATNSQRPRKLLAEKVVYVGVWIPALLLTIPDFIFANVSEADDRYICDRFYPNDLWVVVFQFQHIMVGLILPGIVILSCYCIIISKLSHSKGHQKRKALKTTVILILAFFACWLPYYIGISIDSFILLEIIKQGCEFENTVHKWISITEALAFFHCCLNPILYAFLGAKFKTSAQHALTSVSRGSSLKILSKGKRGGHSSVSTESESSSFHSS
Procedure, shortened: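 Tag-lite CXCR4 cells were exposed to peptide at 400 nM final with 15 nM (EC80) fluorescent CXCR4 probe for 3 h at room temperature. HTRF was read, and the 665/620 nm ratio ×10,000 measured probe bound to terbium-labelled receptor.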

[2] = test system: CXCR4/CXCL12 induced p-MEK; assay: CXCR4/CXCL12 induced p-MEK in Jurkat cells (ELISA); format: cell-based, human; details: 5 nM CXCL12, 5 min
Procedure, shortened: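 Jurkat cells in RPMI+GlutaMax containing 10% FBS and 1% penicillin/streptomycin, fresh or conditioned, were resuspended at 2×10^6 cells/ml and […] aliquots placed in tubes. After a 5 min stimulation they were pelleted, rinsed with HBSS and lysed with PMSF and protease/phosphatase inhibitors. Phospho-MEK1 (Ser217/221) was quantified by sandwich ELISA with absorbance read at 450 nm.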

Jurkat cells = assay: CXCL12 mediated cell migration, Jurkat cells; format: cell-based, human; details: 1.1 μM test article, 100 ng/ml CXCL12, 1 hour
Experimental: The assay was performed following a protocol similar to that described by Peng, et al., Mol Cancer Ther., 14480-90 (2015), incorporated herein by reference. Peptides were initially prepared as 1 mM stock in H2O and tested at a final concentration of 1.1 μM. […] Jurkat cells were resuspended in serum free media (RPMI+GlutaMax; Gibco/Thermo Fisher Scientific; Gaithersburg, Md.) containing 0.5% bovine serum albumin at density of 5×10^6 cells/ml. […] Cells (250,000 cells in 50 μl) supplemented with the appropriate treatments were seeded on to the upper chamber of a 96-well 5 μm HTS Transwell filter insert (Corning/Costar; Tewksbury, Mass.). […] Filter inserts were immediately placed on top of 96-well receiver trays and placed at 37° C. in a humidified atmosphere of 5% CO2/95% air for 1 hour. Following the 1 hour incubation period the filter inserts were carefully removed and the migration of cells across the filter into the bottom chamber (receiver wells) was determined by measuring ATP levels using Cell TiterGlo 2.0, according to manufacturer's instructions (Promega; Madison, Wis.); luminescence was measured using a Cytation 3 plate reader (BioTek; Winooski, Vt.).

human CXCR4 [3] = molecular target: T1, human CXCR4; assay: IC50 for inhibition of CXCR4 activation, β-Arrestin recruitment (Example 22); format: cell-based; parameters: host or cells: C2C12 (mouse myoblast) CXCR4 β-Arrestin PathHunter cell line
Procedure, shortened: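 C2C12 cells co-expressing ProLink-tagged human CXCR4 and Enzyme Acceptor-tagged β-arrestin (PathHunter). Peptides tested in 10-point, 3-fold dilutions from 1 μM (1 μM–0.05 nM). Recruitment read by chemiluminescent enzyme-fragment complementation after 90 min incubation.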

human CXCR4 [4] = molecular target: T1, human CXCR4; assay: IC50 for CXCR4/CXCL12 ligand binding, HTRF format (Example 24); parameters: host or cells: HEK293 (Tag-lite CXCR4 cells, frozen aliquots, transient expression)
Experimental: Peptides were initially prepared as 1 mM stock in H2O. […] Following the manufacture's protocol, a frozen aliquot of Tag-lite CXCR4 cells was thawed and immediately seeded onto 384-well plates in TLB. […] The plates were covered in aluminum foil and left at room temperature for 3 hours. Following the 3 hour incubation period, the plates were removed from the incubator and fluorescence measured using a Cytation 1 plate reader using a HTRF filter cube ([…]; BioTek; Winooski, Vt.).

| SMILES | Percent Inhibition of CXCR4/CXCL12 Binding (400 nM peptide) (human CXCR4 [1]) | Percent Inhibition of CXCR4/CXCL12 Induced p-MEK (100 nM Test Article) [2] | Percent Inhibition of CXCR4/CXCL12 Induced p-MEK (1 μM Test Article) [2] | Percent Inhibition of CXCL12 Mediated Migration (1.1 μM Test Article) (Jurkat cells) | IC50 (human CXCR4 [3]) | IC50 (human CXCR4 [4]) |
| --- | --- | --- | --- | --- | --- | --- |
| CC(C)C[C@H](NC(=O)[C@H](CO)NC(=O)[C@H](CO)NC(=O)[C@H](CCCNC(=N)N)NC(=O)[C@@H](NC(=O)[C@@H](NC(=O)[C@H](Cc1c[nH]cn1)NC(=O)[C@H](Cc1c[nH]cn1)NC(=O)[C@H](Cc1ccc(O)cc1)NC(=O)[C@H](CCCNC(=N)N)NC(=O)[C@H](CCC(=O)O)NC(=O)[C@@H](N)CC(C)C)[C@@H](C)O)C(C)C)C(=O)N[C@@H](CCCNC(=N)N)C(=O)N1CCC[C@H]1C(=O)N[C@@H](Cc1ccc(O)cc1)C(=O)N[C@H](C(=O)N[C@@H](CCCCN)C(=O)O)[C@@H](C)O [compound 39] (H-LERYHHTVRSSLRPYTK-OH; N-terminus and C-terminus assumed) | 87% | 38% | 95% | 77% | 3 nM | 8 nM |
| CC(C)C[C@H](NC(=O)[C@H](CO)NC(=O)[C@H](CO)NC(=O)[C@H](CCCNC(=N)N)NC(=O)[C@@H](NC(=O)[C@H](CO)NC(=O)[C@H](Cc1c[nH]cn1)NC(=O)[C@H](Cc1c[nH]cn1)NC(=O)[C@H](Cc1ccccc1)NC(=O)[C@H](CCCNC(=N)N)NC(=O)[C@H](CCC(=O)O)NC(=O)[C@@H](N)CC(C)C)C(C)C)C(=O)N[C@@H](CCCNC(=N)N)C(=O)N1CCC[C@H]1C(=O)N[C@@H](Cc1ccc(O)cc1)C(=O)N[C@H](C(=O)N[C@@H](CCCCN)C(=O)O)[C@@H](C)O [compound 54] (H-LERFHHSVRSSLRPYTK-OH; N-terminus and C-terminus assumed) | 79% | 46% | 92% | 54% | 3 nM | 8 nM |
| CC(C)C[C@H](NC(=O)[C@H](CO)NC(=O)[C@H](CO)NC(=O)[C@H](CCCNC(=N)N)NC(=O)[C@@H](NC(=O)[C@H](CO)NC(=O)[C@H](Cc1c[nH]cn1)NC(=O)[C@H](Cc1c[nH]cn1)NC(=O)[C@H](Cc1ccc(O)cc1)NC(=O)[C@H](CCCNC(=N)N)NC(=O)[C@H](CCC(=O)O)NC(=O)[C@@H](N)CC(C)C)C(C)C)C(=O)N[C@@H](CCCNC(=N)N)C(=O)N1CCC[C@H]1C(=O)N[C@@H](Cc1ccc(O)cc1)C(=O)N[C@H](C(=O)N[C@@H](CCCCN)C(N)=O)[C@@H](C)O [compound 56] (H-LERYHHSVRSSLRPYTK-NH2; N-terminus assumed) | 79% | 69% | 98% | 83% | 11 nM | 5 nM |
| CC(C)C[C@H](NC(=O)[C@H](CO)NC(=O)[C@H](CO)NC(=O)[C@H](CCCNC(=N)N)NC(=O)[C@@H](C)NC(=O)[C@H](CO)NC(=O)[C@H](Cc1c[nH]cn1)NC(=O)[C@H](Cc1c[nH]cn1)NC(=O)[C@H](Cc1ccc(O)cc1)NC(=O)[C@H](CCCNC(=N)N)NC(=O)[C@H](CCC(=O)O)NC(=O)[C@@H](N)CC(C)C)C(=O)N[C@@H](CCCNC(=N)N)C(=O)N1CCC[C@H]1C(=O)N[C@@H](Cc1ccc(O)cc1)C(=O)N[C@H](C(=O)N[C@@H](CCCCN)C(N)=O)[C@@H](C)O [compound 57] (H-LERYHHS[dA]RSSLRPYTK-NH2; N-terminus assumed) | 77% | 10% | 72% | 30% | 33 nM | 7 nM |
| CC(C)C[C@H](NC(=O)[C@H](CO)NC(=O)[C@H](CO)NC(=O)[C@H](CCCNC(=N)N)NC(=O)[C@@H](NC(=O)[C@H](CO)NC(=O)[C@H](Cc1c[nH]cn1)NC(=O)[C@H](Cc1c[nH]cn1)NC(=O)[C@H](Cc1ccc(O)cc1)NC(=O)[C@H](CCCNC(=N)N)NC(=O)[C@H](CCC(=O)O)NC(=O)[C@@H](N)CC(C)C)C(C)C)C(=O)N[C@@H](CCCNC(=N)N)C(=O)N1CCC[C@H]1C(=O)N[C@@H](Cc1ccccc1)C(=O)N[C@H](C(=O)N[C@@H](CCCCN)C(=O)O)[C@@H](C)O [compound 60] (H-LERYHHSVRSSLRPFTK-OH; N-terminus and C-terminus assumed) | 60% | 34% | 82% | 33% | 4 nM | 17 nM |
| CC(C)C[C@H](NC(=O)[C@@H](NC(=O)[C@H](CO)NC(=O)[C@H](CCCNC(=N)N)NC(=O)[C@@H](NC(=O)[C@H](CO)NC(=O)[C@H](Cc1c[nH]cn1)NC(=O)[C@H](Cc1c[nH]cn1)NC(=O)[C@H](Cc1ccc(O)cc1)NC(=O)[C@H](CCCNC(=N)N)NC(=O)[C@H](CCC(=O)O)NC(=O)[C@@H](N)CC(C)C)C(C)C)[C@@H](C)O)C(=O)N[C@@H](CCCNC(=N)N)C(=O)N1CCC[C@H]1C(=O)N[C@@H](Cc1ccc(O)cc1)C(=O)N[C@H](C(=O)N[C@@H](CCCCN)C(=O)O)[C@@H](C)O [compound 74] (H-LERYHHSVRSTLRPYTK-OH; N-terminus and C-terminus assumed) | 88% | 48% | 93% | 61% | 5 nM | 6 nM |
| CC(C)C[C@H](NC(=O)[C@H](CO)NC(=O)[C@H](CO)NC(=O)[C@H](CCCNC(=N)N)NC(=O)[C@@H](NC(=O)[C@H](CO)NC(=O)[C@H](Cc1c[nH]cn1)NC(=O)[C@H](Cc1c[nH]cn1)NC(=O)[C@H](Cc1ccc(O)cc1)NC(=O)[C@H](CCCNC(=N)N)NC(=O)[C@H](CCC(=O)O)NC(=O)[C@@H](N)CC(C)C)C(C)C)C(=O)N[C@@H](CCCNC(=N)N)C(=O)N1CCC[C@H]1C(=O)N[C@@H](Cc1ccc(O)cc1)C(=O)N[C@@H](CO)C(=O)N[C@@H](CCCCN)C(=O)O [compound 75] (H-LERYHHSVRSSLRPYSK-OH; N-terminus and C-terminus assumed) | 81% | 60% | 100% | 81% | 4 nM | 11 nM |
